Source: patent publication US20100016547A1, “Glycosilated Peptide and Medicine Comprising It as an Effective Ingredient” (priority 2005, published 2010)

How the values were obtained:
GLP-1 receptor [1] = molecular target: T1, GLP-1 receptor (Homo sapiens, UniProt P43220); assay: Assay for production of cAMP
Description: Assay for Production of cAMP
After stirring at room temperature for an hour, the cells were lysed with Triton X-100 (final concentration: 1%).
Quantity of cAMP was determined using cAMP Femtomolar Kit (CIS Bio International). The reaction solution (1 μL) was moved to a new 384-well plate and diluted by adding 9 μL of dilution buffer. Next, each 5 μL of cAMP-XL665 solution and anti-cAMP cryptate solution of the Kit was added, the mixture was incubated at room temperature for an hour, and time-resolved fluorescence was measured using RUBYstar (BMG LABTECH).

GLP-1 receptor [2] = molecular target: T1, GLP-1 receptor
Description: After being incubated at room temperature for 2 hours, the solution was filtered through a unifilter 96GF/C plate (Perkin-Elmer) pretreated with 1% polyethylenimine containing 0.5% BSA, washed with 25 mM HEPES buffer solution (pH 7.4) containing 0.5% BSA, and radioactivity remained on the filter was measured by a gamma counter (Top Counter; Perkin-Elmer).

T1 sequence (P43220 24-463, species assumed): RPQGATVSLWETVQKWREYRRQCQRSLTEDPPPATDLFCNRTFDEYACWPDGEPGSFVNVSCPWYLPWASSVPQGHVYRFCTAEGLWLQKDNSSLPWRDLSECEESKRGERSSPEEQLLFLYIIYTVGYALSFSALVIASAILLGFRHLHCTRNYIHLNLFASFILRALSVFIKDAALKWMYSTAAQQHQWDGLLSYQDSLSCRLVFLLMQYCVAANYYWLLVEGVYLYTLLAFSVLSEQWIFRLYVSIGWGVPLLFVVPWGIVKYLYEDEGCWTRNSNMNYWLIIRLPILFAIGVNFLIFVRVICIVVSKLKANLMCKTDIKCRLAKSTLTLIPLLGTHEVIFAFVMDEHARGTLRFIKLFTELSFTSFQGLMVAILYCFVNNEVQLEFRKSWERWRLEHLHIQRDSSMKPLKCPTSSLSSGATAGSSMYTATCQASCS

Compound	EC50 (GLP-1 receptor [1]) [nM]	IC50 (GLP-1 receptor [2]) [nM]
CC[C@H](C)[C@H](NC(=O)[C@H](Cc1ccccc1)NC(=O)[C@H](CCC(=O)O)NC(=O)[C@H](CCCCN)NC(=O)[C@H](C)NC(=O)[C@H](C)NC(=O)[C@H](CCC(N)=O)NC(=O)CNC(=O)[C@H](CCC(=O)O)NC(=O)[C@H](CC(C)C)NC(=O)[C@H](Cc1ccc(O)cc1)NC(=O)[C@H](CO)NC(=O)[C@H](CO)NC(=O)[C@@H](NC(=O)[C@H](CC(=O)O)NC(=O)[C@H](CO)NC(=O)[C@@H](NC(=O)[C@H](Cc1ccccc1)NC(=O)[C@@H](NC(=O)CNC(=O)[C@H](CCC(=O)O)NC(=O)[C@H](C)NC(=O)[C@@H](N)Cc1c[nH]cn1)[C@@H](C)O)[C@@H](C)O)C(C)C)C(=O)N[C@@H](C)C(=O)N[C@@H](Cc1c[nH]c2ccccc12)C(=O)N[C@@H](CC(C)C)C(=O)N[C@H](C(=O)N[C@@H](CC(=O)N[C@@H]1O[C@H](CO)[C@@H](O)[C@H](O)[C@H]1NC(C)=O)C(=O)NCC(=O)N[C@@H](CCCNC(=N)N)C(=O)N[C@@H](CC(=O)N[C@@H]1O[C@H](CO)[C@@H](O)[C@H](O)[C@H]1NC(C)=O)C(N)=O)C(C)C [GL3437NG]	0.11	0.9
CC[C@H](C)[C@H](NC(=O)[C@H](Cc1ccccc1)NC(=O)[C@H](CCC(=O)O)NC(=O)[C@H](CCCCN)NC(=O)[C@H](C)NC(=O)[C@H](C)NC(=O)[C@H](CCC(N)=O)NC(=O)CNC(=O)[C@H](CCC(=O)O)NC(=O)[C@H](CC(C)C)NC(=O)[C@H](Cc1ccc(O)cc1)NC(=O)[C@H](CO)NC(=O)[C@H](CO)NC(=O)[C@@H](NC(=O)[C@H](CC(=O)O)NC(=O)[C@H](CO)NC(=O)[C@@H](NC(=O)[C@H](Cc1ccccc1)NC(=O)[C@@H](NC(=O)CNC(=O)[C@H](CCC(=O)O)NC(=O)[C@H](C)NC(=O)[C@@H](N)Cc1c[nH]cn1)[C@@H](C)O)[C@@H](C)O)C(C)C)C(=O)N[C@@H](C)C(=O)N[C@@H](Cc1c[nH]c2ccccc12)C(=O)N[C@@H](CC(C)C)C(=O)N[C@H](C(=O)N[C@@H](CC(N)=O)C(=O)NCC(=O)N[C@@H](CCCNC(=N)N)C(N)=O)C(C)C [GL34N]	0.11	1
CC[C@H](C)[C@H](NC(=O)[C@H](Cc1ccccc1)NC(=O)[C@H](CCC(=O)O)NC(=O)[C@H](CCCCN)NC(=O)[C@H](C)NC(=O)[C@H](C)NC(=O)[C@H](CCC(N)=O)NC(=O)CNC(=O)[C@H](CCC(=O)O)NC(=O)[C@H](CC(C)C)NC(=O)[C@H](Cc1ccc(O)cc1)NC(=O)[C@H](CO)NC(=O)[C@H](CO)NC(=O)[C@@H](NC(=O)[C@H](CC(=O)O)NC(=O)[C@H](CO)NC(=O)[C@@H](NC(=O)[C@H](Cc1ccccc1)NC(=O)[C@@H](NC(=O)CNC(=O)[C@H](CCC(=O)O)NC(=O)[C@H](C)NC(=O)[C@@H](N)Cc1c[nH]cn1)[C@@H](C)O)[C@@H](C)O)C(C)C)C(=O)N[C@@H](C)C(=O)N[C@@H](Cc1c[nH]c2ccccc12)C(=O)N[C@@H](CC(C)C)C(=O)N[C@H](C(=O)N[C@@H](CSCC(=O)N[C@@H](CC(=O)N[C@@H]1O[C@H](CO)[C@@H](O[C@@H]2O[C@H](CO)[C@@H](O[C@@H]3O[C@H](CO[C@H]4O[C@H](CO)[C@@H](O)[C@H](O)[C@@H]4O[C@@H]4O[C@H](CO)[C@@H](O[C@@H]5O[C@H](CO[C@]6(C(=O)O)C[C@H](O)[C@@H](NC(C)=O)[C@H]([C@H](O)[C@H](O)CO)O6)[C@H](O)[C@H](O)[C@H]5O)[C@H](O)[C@H]4NC(C)=O)[C@@H](O)[C@H](O[C@H]4O[C@H](CO)[C@@H](O)[C@H](O)[C@@H]4O[C@@H]4O[C@H](CO)[C@@H](O[C@@H]5O[C@H](CO[C@]6(C(=O)O)C[C@H](O)[C@@H](NC(C)=O)[C@H]([C@H](O)[C@H](O)CO)O6)[C@H](O)[C@H](O)[C@H]5O)[C@H](O)[C@H]4NC(C)=O)[C@@H]3O)[C@H](O)[C@H]2NC(C)=O)[C@H](O)[C@H]1NC(C)=O)C(=O)O)C(=O)NCC(=O)N[C@@H](CCCNC(=N)N)C(N)=O)C(C)C [GL34CE1]	0.72	3.5
CC[C@H](C)[C@H](NC(=O)[C@H](Cc1ccccc1)NC(=O)[C@H](CCC(=O)O)NC(=O)[C@H](CCCCN)NC(=O)[C@H](C)NC(=O)[C@H](C)NC(=O)[C@H](CCC(N)=O)NC(=O)CNC(=O)[C@H](CCC(=O)O)NC(=O)[C@H](CC(C)C)NC(=O)[C@H](Cc1ccc(O)cc1)NC(=O)[C@H](CO)NC(=O)[C@H](CO)NC(=O)[C@@H](NC(=O)[C@H](CC(=O)O)NC(=O)[C@H](CO)NC(=O)[C@@H](NC(=O)[C@H](Cc1ccccc1)NC(=O)[C@@H](NC(=O)CNC(=O)[C@H](CCC(=O)O)NC(=O)[C@H](C)NC(=O)[C@@H](N)Cc1c[nH]cn1)[C@@H](C)O)[C@@H](C)O)C(C)C)C(=O)N[C@@H](C)C(=O)N[C@@H](Cc1c[nH]c2ccccc12)C(=O)N[C@@H](CC(C)C)C(=O)N[C@H](C(=O)N[C@@H](CC(=O)N[C@@H]1O[C@H](CO)[C@@H](O[C@@H]2O[C@H](CO)[C@H](O)[C@H](O)[C@H]2O)[C@H](O)[C@H]1NC(C)=O)C(=O)NCC(=O)N[C@@H](CCCNC(=N)N)C(N)=O)C(C)C [GL34NL]	0.11	0.76
CC[C@H](C)[C@H](NC(=O)[C@H](Cc1ccccc1)NC(=O)[C@H](CCC(=O)O)NC(=O)[C@H](CC(=O)N[C@@H]1O[C@H](CO)[C@@H](O[C@@H]2O[C@H](CO)[C@@H](O[C@@H]3O[C@H](CO[C@H]4O[C@H](CO)[C@@H](O)[C@H](O)[C@@H]4O[C@@H]4O[C@H](CO)[C@@H](O[C@@H]5O[C@H](CO[C@]6(C(=O)O)C[C@H](O)[C@@H](NC(C)=O)[C@H]([C@H](O)[C@H](O)CO)O6)[C@H](O)[C@H](O)[C@H]5O)[C@H](O)[C@H]4NC(C)=O)[C@@H](O)[C@H](O[C@H]4O[C@H](CO)[C@@H](O)[C@H](O)[C@@H]4O[C@@H]4O[C@H](CO)[C@@H](O[C@@H]5O[C@H](CO[C@]6(C(=O)O)C[C@H](O)[C@@H](NC(C)=O)[C@H]([C@H](O)[C@H](O)CO)O6)[C@H](O)[C@H](O)[C@H]5O)[C@H](O)[C@H]4NC(C)=O)[C@@H]3O)[C@H](O)[C@H]2NC(C)=O)[C@H](O)[C@H]1NC(C)=O)NC(=O)[C@H](C)NC(=O)[C@H](C)NC(=O)[C@H](CCC(N)=O)NC(=O)CNC(=O)[C@H](CCC(=O)O)NC(=O)[C@H](CC(C)C)NC(=O)[C@H](Cc1ccc(O)cc1)NC(=O)[C@H](CO)NC(=O)[C@H](CO)NC(=O)[C@@H](NC(=O)[C@H](CC(=O)O)NC(=O)[C@H](CO)NC(=O)[C@@H](NC(=O)[C@H](Cc1ccccc1)NC(=O)[C@@H](NC(=O)CNC(=O)[C@H](CCC(=O)O)NC(=O)[C@H](C)NC(=O)[C@@H](N)Cc1c[nH]cn1)[C@@H](C)O)[C@@H](C)O)C(C)C)C(=O)N[C@@H](C)C(=O)N[C@@H](Cc1c[nH]c2ccccc12)C(=O)N[C@@H](CC(C)C)C(=O)N[C@H](C(=O)N[C@@H](CCCCN)C(=O)NCC(=O)N[C@@H](CCCNC(=N)N)C(N)=O)C(C)C [GL26NE1]	0.8	11
CC[C@H](C)[C@H](NC(=O)[C@H](Cc1ccccc1)NC(=O)[C@H](CCC(=O)O)NC(=O)[C@H](CCCCN)NC(=O)[C@H](C)NC(=O)[C@H](C)NC(=O)[C@H](CCC(N)=O)NC(=O)CNC(=O)[C@H](CCC(=O)O)NC(=O)[C@H](CC(C)C)NC(=O)[C@H](Cc1ccc(O)cc1)NC(=O)[C@H](CO)NC(=O)[C@H](CO)NC(=O)[C@@H](NC(=O)[C@H](CC(=O)O)NC(=O)[C@H](CO)NC(=O)[C@@H](NC(=O)[C@H](Cc1ccccc1)NC(=O)[C@@H](NC(=O)CNC(=O)[C@H](CCC(=O)O)NC(=O)[C@H](C)NC(=O)[C@@H](N)Cc1c[nH]cn1)[C@@H](C)O)[C@@H](C)O)C(C)C)C(=O)N[C@@H](C)C(=O)N[C@@H](Cc1c[nH]c2ccccc12)C(=O)N[C@@H](CC(C)C)C(=O)N[C@H](C(=O)N[C@@H](CSCC(=O)N[C@@H](CC(=O)N[C@@H]1O[C@H](CO)[C@@H](O[C@@H]2O[C@H](CO)[C@@H](O[C@@H]3O[C@H](CO[C@H]4O[C@H](CO)[C@@H](O)[C@H](O)[C@@H]4O[C@@H]4O[C@H](CO)[C@@H](O[C@@H]5O[C@H](CO[C@]6(C(=O)O)C[C@H](O)[C@@H](NC(C)=O)[C@H]([C@H](O)[C@H](O)CO)O6)[C@H](O)[C@H](O)[C@H]5O)[C@H](O)[C@H]4NC(C)=O)[C@@H](O)[C@H](O[C@H]4O[C@H](CO)[C@@H](O)[C@H](O)[C@@H]4O[C@@H]4O[C@H](CO)[C@@H](O[C@@H]5O[C@H](CO[C@]6(C(=O)O)C[C@H](O)[C@@H](NC(C)=O)[C@H]([C@H](O)[C@H](O)CO)O6)[C@H](O)[C@H](O)[C@H]5O)[C@H](O)[C@H]4NC(C)=O)[C@@H]3O)[C@H](O)[C@H]2NC(C)=O)[C@H](O)[C@H]1NC(C)=O)C(=O)O)C(=O)NCC(=O)N[C@@H](CCCNC(=N)N)C(=O)N[C@@H](CSCC(=O)N[C@@H](CC(=O)N[C@@H]1O[C@H](CO)[C@@H](O[C@@H]2O[C@H](CO)[C@@H](O[C@@H]3O[C@H](CO[C@H]4O[C@H](CO)[C@@H](O)[C@H](O)[C@@H]4O[C@@H]4O[C@H](CO)[C@@H](O[C@@H]5O[C@H](CO[C@]6(C(=O)O)C[C@H](O)[C@@H](NC(C)=O)[C@H]([C@H](O)[C@H](O)CO)O6)[C@H](O)[C@H](O)[C@H]5O)[C@H](O)[C@H]4NC(C)=O)[C@@H](O)[C@H](O[C@H]4O[C@H](CO)[C@@H](O)[C@H](O)[C@@H]4O[C@@H]4O[C@H](CO)[C@@H](O[C@@H]5O[C@H](CO[C@]6(C(=O)O)C[C@H](O)[C@@H](NC(C)=O)[C@H]([C@H](O)[C@H](O)CO)O6)[C@H](O)[C@H](O)[C@H]5O)[C@H](O)[C@H]4NC(C)=O)[C@@H]3O)[C@H](O)[C@H]2NC(C)=O)[C@H](O)[C@H]1NC(C)=O)C(=O)O)C(N)=O)C(C)C [GL3437CE1]	4.1	30
